This is an account of results in patent US20240197756A1, “METHODS OF TREATMENT WITH NEUROACTIVE STEROIDS” (priority 2021, published 2024).

Data set [1] in a line: Food Effect Cohort (Cohort 4), plasma pharmacokinetics fasted vs high-fat meal. It is filed as in vivo, human.
Experimental: A Food Effect Cohort (Cohort 4) was conducted to assess the effect of food on the PK profile of a single dose of Compound 1 when administered to healthy subjects. The subjects of Cohort 4 were treated with 30 mg of Compound 1 QD.
Cohort 4 subjects received a single 30 mg dose of a Compound 1 suspension on Days 1 and 5. The Day 1 dose was administered after a minimum of 10 hour fasting. No additional fluid intake was allowed until 1 hour after drug administration. A standard meal was given at least 4 hours post-dose. The Day 5 dose was administered following a high-fat, high calorie meal. Participants remained at the clinical site for a total of 8 days to complete pharmacokinetic sampling after the second dose.
Plasma samples were analyzed to determine Compound 1 concentrations using a validated assay method. Pharmacokinetic variables (including but not limited to Cmax, Tmax and AUC(0-last)) were calculated using non-compartmental analysis. PK parameters for Compound 1 were derived from the plasma concentration data using non-compartmental analysis with Phoenix™ WinNonlin® v 8.0 (Pharsight Corporation, USA).
Blood (Cohort 4): Serial blood samples were collected relative to the dosing of Compound 1 at the following time points on both Day 1 and Day 5: Pre-dose (0 hours), 0.25, 0.50, 0.75, 1.00, 1.50, 2.00, 2.50, 3.00, 4.00, 6.00, 8.00, 12.00, 16.00, 24.00, 36.00, 48.00 and 72.00 hours post-dose (±2 min).
The nature of data set [2]: Safety and tolerability in the multiple escalating dose study in healthy subjects. The class given is in vivo, human.
Experimental: Adverse events (AEs) were monitored throughout the duration of the study.
To monitor for possible AEs, vital signs, hematology and clinical chemistry laboratory parameters, ECG readings, neurological examination findings, and EEG parameters and abnormal findings were recorded at each visit.
A further data set concerns harmaline-induced tremor. The data set can be described thus: rHIT model, coadministration of Compound 1 and Compound 2. It is filed as in vivo, rat. The method, then:
Rat Harmaline Induced Tremor (rHIT): The rHIT model was used to assess the impact of the combination of Compound 1 and Compound 2 on reducing the symptoms of tremor. Male SD rats (SLAC, Shanghai, China) weighing about 250 g at the time of testing were housed in a 12:12 light-dark cycle room throughout the study, with the lights on from 5 a.m. to 5 p.m, and fed ad libitum. […]
The rHIT methods described in Example 5 were used. […] After the 20-minute baseline recording, rats were dosed with harmaline and the post-harmaline effect was measured for 20 minutes. […]

For a further data set, the system named is GABAA receptors. The data set can be described thus: Pre-clinical qEEG beta power and animal models of anxiety and depression. The following applies: pre-clinical studies. The class given is in vivo.
[3] abbreviates: 30 mg single dose, Fasted (Day 1), n = 10, Mean.
Where [4] appears, read: 30 mg single dose, Fed (high-fat, high calorie meal), n = 10, Mean.
[5] abbreviates: Cohorts 1-3, 15-60 mg QD for 14 days.

In the case of `COC[C@@]1(O)CC[C@@]2(C)[C@@H](CC[C@@H]3[C@@H]2CC[C@]2(C)[C@@H](C(=O)Cn4ccnc4)CC[C@@H]32)C1` [Compound 1, 3α-Hydroxy-3β-methoxymethyl-21-(1′-imidazolyl)-5α-pregnan-20-one], the “t1/2 fasted vs fed conditions” value in data set [1] (30 mg dose) is recorded as “similar”. Besides, the “AUC increase in the fed state versus the fasted state” value in data set [1] (30 mg dose group) is reported as 1.17 fold. In addition, in data set [1] (30 mg dose, high-fat meal), the “AUC0-t Fed/Fasted Ratio” value is 1.17 and the “Cmax Fed/Fasted Ratio” value was 0.64. For the same molecule, in data set [1] (setting [3]), the AUC0-last was 597.7 ng·h/mL, the “AUC %Extrap” value is reported as 0.8702%, the AUCinf was determined as 602.3 ng·h/mL and the Cmax was found to be 84.18 ng/mL. Further, in data set [1] (setting [4]), the AUC0-last was found to be 629.9 ng·h/mL, the “AUC %Extrap” value was 0.6632%, the AUCinf was 634.2 ng·h/mL and the Cmax is reported as 45.36 ng/mL. Besides, the Tmax in data set [1] (30 mg single dose, Fed (high-fat, high calorie meal), n = 10, Median) was determined as 3.25 h. Further, in data set [1] (human, in vivo, 30 mg), the “Cmax decrease under fed conditions” value stood at 0.64 fold. Besides, in data set [1] (human, in vivo, 30 mg single dose, Fasted (Day 1), n = 10, Mean), the half-life was 11.2 h. Also, in data set [2] (setting [5]), the “Serious Adverse Events” value is recorded as “no Serious Adverse Events” and the “vital sign, ECG, or lab abnormalities” value was “no clinically relevant vital sign, ECG, or lab abnormalities”. For the same molecule, the “maximum tolerated dose and serious adverse events” value in data set [2] (MAD study, after a dose of 60 mg, beta power increase up to 2.8-fold) is listed as “without achieving a maximum tolerated dose (MTD) or demonstrating any serious adverse events (SAEs)”. Also, the “effect of Compound 1 on the efficacy of Compound 2 in treating tremor” value with harmaline-induced tremor (Compound 1 3 mg/kg p.o.) is listed as “does not inhibit”. Moreover, in the data set on harmaline-induced tremor (Compound 1 3 mg/kg p.o. (FIG. 11)), the “effect of the addition of Compound 1 on the tremor-reducing effects of Compound 2” value is reported as “did not appear to enhance”. The “increase in beta power associated with robust activity in animal models of anxiety and depression” value in the data set on GABAA receptors turned out to be 1.6 fold.

In general, half-life refers to the time needed for the level to fall by half in the phase considered. A lower half-life goes with fast loss.
